Source: US20090253709A1 (NATIONAL DEFENSE MEDICAL CENTER, priority 2008, published 2009)

Tests used:
Assay in all cases: In vitro cytotoxicity, Development Therapeutics Program
Assay type in all cases: cell-based
UACC-257 = conditions: UACC-257, melanoma; 1.0×10^−5 M
Source text: (§1) From the in vitro experiments of the Development Therapeutics Program of the Cancer Research Institute, the United States, it was known that the synthetic heterocyclic anthraquinone derivatives of the present invention have different inhibition levels to the different cancer cell lines under the concentration of 1.0×10^−5 M. Please refer to Table 2, which is the result of in vitro cytotoxicity of 2,7-disubstituted anthraquinone derivatives of the present invention.

SNB-19 = conditions: SNB-19, CNS cancer; 1.0×10^−5 M
Source text: as §1

SF-268 = conditions: SF-268, CNS cancer; 1.0×10^−5 M
Source text: as §1

DU-145 = conditions: DU-145, prostate cancer; 1.0×10^−5 M
Source text: as §1

MALME-3M = conditions: melanoma, 1.0×10^−5 M
Source text: as §1

SF-539 = conditions: SF-539, CNS cancer; 1.0×10^−5 M
Source text: as §1

BT-549 = conditions: BT-549, breast cancer; 1.0×10^−5 M
Source text: as §1

A498 = conditions: A498, renal cancer; 1.0×10^−5 M
Source text: as §1

NCl-H460 = conditions: NCl-H460, non-small cell lung cancer; 1.0×10^−5 M
Source text: as §1

SK-MEL-2 = conditions: SK-MEL-2, melanoma; 1.0×10^−5 M
Source text: as §1

SNB-75 = conditions: SNB-75, CNS cancer; 1.0×10^−5 M
Source text: as §1

MCF7 = conditions: MCF7, breast cancer; 1.0×10^−5 M
Source text: as §1

PC-3 = conditions: PC-3, prostate cancer; 1.0×10^−5 M
Source text: as §1

HOP-92 = conditions: HOP-92, non-small cell lung cancer; 1.0×10^−5 M
Source text: as §1

NCl-H322M = conditions: non-small cell lung cancer, 1.0×10^−5 M
Source text: as §1

OVCAR-8 = conditions: OVCAR-8, ovarian cancer; 1.0×10^−5 M
Source text: as §1

HCT-15 = conditions: HCT-15, colon cancer; 1.0×10^−5 M
Source text: as §1

T-47D = conditions: breast cancer, 1.0×10^−5 M
Source text: as §1

SK-MEL-5 = conditions: SK-MEL-5, melanoma; 1.0×10^−5 M
Source text: as §1

786-0 = conditions: 786-0, renal cancer; 1.0×10^−5 M
Source text: as §1

ACHN = conditions: renal cancer, 1.0×10^−5 M
Source text: as §1

HOP-62 = conditions: HOP-62, non-small cell lung cancer; 1.0×10^−5 M
Source text: as §1

NCl-H226 = conditions: NCl-H226, non-small cell lung cancer; 1.0×10^−5 M
Source text: as §1

UACC-62 = conditions: UACC-62, melanoma; 1.0×10^−5 M
Source text: as §1

HCC-2998 = conditions: HCC-2998, colon cancer; 1.0×10^−5 M
Source text: as §1

MOLT-4 = conditions: MOLT-4, leukemia; 1.0×10^−5 M
Source text: as §1

HL-60(TB) = conditions: leukemia, 1.0×10^−5 M
Source text: as §1

UO-31 = conditions: UO-31, renal cancer; 1.0×10^−5 M
Source text: as §1

LOX IMVI = conditions: melanoma, 1.0×10^−5 M
Source text: as §1

KM12 = conditions: KM12, colon cancer; 1.0×10^−5 M
Source text: as §1

SK-MEL-28 = conditions: SK-MEL-28, melanoma; 1.0×10^−5 M
Source text: as §1

OVCAR-5 = conditions: OVCAR-5, ovarian cancer; 1.0×10^−5 M
Source text: as §1

MDA-MB-231/ATCC = conditions: breast cancer, 1.0×10^−5 M
Source text: as §1

COLO 205 = conditions: COLO 205, colon cancer; 1.0×10^−5 M
Source text: as §1

MDA-MB-435 = conditions: MDA-MB-435, breast cancer; 1.0×10^−5 M
Source text: as §1

SR = conditions: leukemia, 1.0×10^−5 M
Source text: as §1

NCI-H23 = conditions: NCI-H23, non-small cell lung cancer; 1.0×10^−5 M
Source text: as §1

NCI/ADR-RES = conditions: breast cancer, 1.0×10^−5 M
Source text: as §1

With CCN(CC)CCC(=O)Nc1ccc2c(c1)C(=O)c1cc(NC(=O)CCN(CC)CC)ccc1C2=O [Compound 16, 2,7-Bis[3-(diethylamino)propionamido]anthraquinone] the “Cellular growth rate (%)” value (UACC-257) was −14.46%, the “Cellular growth rate (%)” value (SNB-19) was 75.84% and the “Cellular growth rate (%)” value (SF-268) was 35.18%. For the same compound, the “Cellular growth rate (%)” value (DU-145) was 10.20%, the “Cellular growth rate (%)” value (MALME-3M) was 62.39% and the “Cellular growth rate (%)” value (SF-539) was 37.15%. The “Cellular growth rate (%)” value (BT-549) was 57.04%, the “Cellular growth rate (%)” value (A498) was −38.76% and the “Cellular growth rate (%)” value (NCl-H460) was 9.50%. For the same compound, the “Cellular growth rate (%)” value (SK-MEL-2) was −60.38%, the “Cellular growth rate (%)” value (SNB-75) was 46.62% and the “Cellular growth rate (%)” value (MCF7) was 9.34%. The “Cellular growth rate (%)” value (PC-3) was 13.59%, the “Cellular growth rate (%)” value (HOP-92) was 9.70% and the “Cellular growth rate (%)” value (NCl-H322M) was 44.75%. For the same compound, the “Cellular growth rate (%)” value (OVCAR-8) was 4.30%, the “Cellular growth rate (%)” value (HCT-15) was 17.42% and the “Cellular growth rate (%)” value (T-47D) was 68.62%. The “Cellular growth rate (%)” value (SK-MEL-5) was 82.75%, the “Cellular growth rate (%)” value (786-0) was 24.72% and the “Cellular growth rate (%)” value (ACHN) was 11.09%. The “Cellular growth rate (%)” value (HOP-62) was 11.65%, the “Cellular growth rate (%)” value (NCl-H226) was 49.89% and the “Cellular growth rate (%)” value (UACC-62) was 44.45%. For the same compound, the “Cellular growth rate (%)” value (HCC-2998) was −87.42%, the “Cellular growth rate (%)” value (MOLT-4) was 5.42% and the “Cellular growth rate (%)” value (HL-60(TB)) was 14.01%. The “Cellular growth rate (%)” value (UO-31) was −31.53%, the “Cellular growth rate (%)” value (LOX IMVI) was 3.39% and the “Cellular growth rate (%)” value (KM12) was 21.82%. For the same compound, the “Cellular growth rate (%)” value (SK-MEL-28) was 2.56%, the “Cellular growth rate (%)” value (OVCAR-5) was 33.63% and the “Cellular growth rate (%)” value (MDA-MB-231/ATCC) was 31.32%. The “Cellular growth rate (%)” value (COLO 205) was −49.69%, the “Cellular growth rate (%)” value (MDA-MB-435) was 71.07% and the “Cellular growth rate (%)” value (SR) was −0.39%. The “Cellular growth rate (%)” value (NCI-H23) was 30.34% and the “Cellular growth rate (%)” value (NCI/ADR-RES) was 59.52%.
